From the supplement of paper PMC10307832

The cell lines below were run with C1CSC2=C(C(=O)N1)SC3=C2C=C(C=C3)O [kb NB 142-70] + CC(C)C[C@H](NC(=O)[C@H](Cc1ccccc1)NC(=O)c1cnccn1)B(O)O [Bortezomib] (partner 0.002 µM) (assay: relative viability (nuclei count vs DMSO), 5 days (fraction); higher = more cells survive). Details: first compound 1 µM.
Procedure, shortened: (§1)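 Medians of duplicate plates are given as relative viability. That measure is the nuclei count in treated wells divided by the count in vehicle wells. Counts were taken on 4× images of lung cancer cell lines in 1536-well plates, 5 days after pin-tool dosing the day after seeding with one drug alone or a fixed anchor-drug dose plus five library-drug doses (not always all listed) in √10 steps.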

| Cell Line | relative viability |
| --- | --- |
| H3255 | 0.7 |
| COR-L23 | 0.913 |
| COR-L 105 | 0.828 |
| IA-LM | 1.06 |
| LOU-NH91 | 0.431 |
| NCI-H2009 | 1.05 |
| NCI-H661 | 0.805 |
| SK-LU-1 | 1.05 |
| NCI-H1299 | 1.07 |
| CAL-12T | 1.04 |
| NCI-H2228 | 0.689 |
| NCI-H2023 | 1.02 |
| NCI-H1563 | 0.84 |
| ABC-1 | 0.278 |

Same assay, conditions: first compound 3.162 µM

| Cell Line | relative viability |
| --- | --- |
| NCI-H727 | 1.02 |
| NCI-H1650 | 0.203 |
| EBC-1 | 0.358 |
| NCI-H1703 | 0.209 |
| NCI-H1993 | 1.17 |
| SW 1573 | 0.322 |
| NCI-H838 | 0.877 |
| LCLC-103H | 1.07 |
| NCI-H520 | 0.277 |
| NCI-H2126 | 1.12 |
| EMC-BAC-2 | 0.812 |
| NCI-H2085 | 0.709 |
| Calu-6 | 0.62 |
| HCC-366 | 1.12 |
| NCI-H1666 | 0.36 |
| NCI-H596 | 0.954 |

| Cell Line | relative viability |
| --- | --- |
| NCI-H2087 | 0.755 |
| H3255 | 0.822 |
| COR-L23 | 0.51 |
| COR-L 105 | 0.903 |
| IA-LM | 0.647 |
| LOU-NH91 | 0.353 |
| NCI-H2009 | 0.638 |
| NCI-H661 | 0.802 |
| SK-LU-1 | 0.839 |
| NCI-H1299 | 1.05 |
| CAL-12T | 0.819 |
| NCI-H2228 | 0.303 |
| NCI-H2023 | 0.668 |
| NCI-H1563 | 0.956 |
| ABC-1 | 0.239 |

Each cell line was assayed with C1CSC2=C(C(=O)N1)SC3=C2C=C(C=C3)O [kb NB 142-70] + Nc1ncn([C@H]2C[C@H](O)[C@@H](CO)O2)c(=O)n1 [Decitabine] (partner 2 µM) in the same assay as above. Details: first compound 0.1 µM.
Procedure, shortened: as §1

| Cell Line | relative viability |
| --- | --- |
| NCI-H2342 | 0.66 |
| NCI-H727 | 0.915 |
| NCI-H1650 | 0.492 |
| NCI-H1993 | 0.63 |
| SW 1573 | 0.526 |
| NCI-H838 | 0.431 |
| LCLC-103H | 0.75 |
| NCI-H520 | 0.506 |
| NCI-H2126 | 0.555 |
| EMC-BAC-2 | 1.06 |
| NCI-H2085 | 0.55 |
| HCC-366 | 0.366 |
| NCI-H1666 | 0.76 |
| NCI-H596 | 0.909 |
| LK-2 | 0.37 |
| NCI-H2087 | 0.277 |
| NCI-H1648 | 0.452 |
| SK-MES-1 | 0.466 |

| Cell Line | relative viability |
| --- | --- |
| H3255 | 0.623 |
| COR-L23 | 0.409 |
| COR-L 105 | 0.68 |
| LOU-NH91 | 0.83 |
| NCI-H2170 | 0.501 |
| A549 | 0.24 |
| NCI-H522 | 0.61 |
| SW 900 | 0.473 |
| NCI-H2009 | 0.371 |
| NCI-H661 | 0.614 |
| SK-LU-1 | 0.589 |
| NCI-H1395 | 0.635 |
| NCI-H2023 | 0.218 |
| NCI-H1793 | 0.487 |
| NCI-H1944 | 0.451 |
| ABC-1 | 1.05 |
| NCI-H358 | 0.226 |

Same assay, conditions: first compound 1 µM

| Cell Line | relative viability |
| --- | --- |
| NCI-H2342 | 0.694 |
| NCI-H727 | 0.868 |
| NCI-H1650 | 0.408 |
| NCI-H1993 | 0.589 |
| SW 1573 | 0.378 |
| NCI-H838 | 0.454 |
| LCLC-103H | 0.737 |
| NCI-H520 | 0.43 |
| NCI-H2126 | 0.616 |
| EMC-BAC-2 | 0.994 |
| NCI-H2085 | 0.522 |
| HCC-366 | 0.407 |
| NCI-H1666 | 0.712 |
| NCI-H596 | 1.09 |
| LK-2 | 0.282 |
| NCI-H2087 | 0.245 |
| NCI-H1648 | 0.435 |
| SK-MES-1 | 0.338 |

| Cell Line | relative viability |
| --- | --- |
| H3255 | 0.591 |
| COR-L23 | 0.465 |
| COR-L 105 | 0.576 |
| LOU-NH91 | 0.854 |
| NCI-H2170 | 0.496 |
| A549 | 0.245 |
| NCI-H522 | 0.698 |
| SW 900 | 0.4 |
| NCI-H2009 | 0.38 |
| NCI-H661 | 0.588 |
| SK-LU-1 | 0.505 |
| NCI-H1395 | 0.726 |
| NCI-H2023 | 0.213 |
| NCI-H1793 | 0.544 |
| NCI-H1944 | 0.458 |
| ABC-1 | 0.69 |
| NCI-H358 | 0.148 |

Same assay, conditions: first compound 3.162 µM

| Cell Line | relative viability |
| --- | --- |
| NCI-H2342 | 0.748 |
| NCI-H727 | 0.768 |
| NCI-H1650 | 0.442 |
| NCI-H1993 | 0.514 |
| SW 1573 | 0.26 |
| NCI-H838 | 0.427 |
| LCLC-103H | 0.773 |
| NCI-H520 | 0.357 |
| NCI-H2126 | 0.571 |
| EMC-BAC-2 | 1.1 |
| NCI-H2085 | 0.448 |
| HCC-366 | 0.415 |
| NCI-H1666 | 0.603 |
| NCI-H596 | 0.766 |
| LK-2 | 0.195 |
| NCI-H2087 | 0.189 |
| NCI-H1648 | 0.493 |
| SK-MES-1 | 0.22 |

| Cell Line | relative viability |
| --- | --- |
| H3255 | 0.629 |
| COR-L23 | 0.246 |
| COR-L 105 | 0.589 |
| LOU-NH91 | 0.61 |
| NCI-H2170 | 0.369 |
| A549 | 0.233 |
| NCI-H522 | 0.581 |
| SW 900 | 0.418 |
| NCI-H2009 | 0.375 |
| NCI-H661 | 0.496 |
| SK-LU-1 | 0.417 |
| NCI-H1395 | 0.609 |
| NCI-H2023 | 0.149 |
| NCI-H1793 | 0.3 |
| NCI-H1944 | 0.473 |
| ABC-1 | 0.776 |
| NCI-H358 | 0.0899 |

These cell lines were tested with NCC(=O)Nc1ccc(-n2nc(C(F)(F)F)cc2-c2ccc3c(ccc4ccccc43)c2)cc1 + C[C@@H](Oc1cc(-c2cnn(C3CCNCC3)c2)cnc1N)c1c(Cl)ccc(F)c1Cl [Crizotinib] (partner 1 µM) in the same assay as above. Details: first compound 0.02 µM.
Procedure, shortened: as §1

| Cell Line | relative viability |
| --- | --- |
| NCI-H727 | 1.03 |
| NCI-H1650 | 1.11 |
| EBC-1 | 0.178 |
| NCI-H1703 | 0.593 |
